Experimental data reported in patent US20250213571A1, “TYK2 INHIBITORS AND USES THEREOF” (Alumis Inc., priority 2022, published 2025).
Like-named read-outs stand apart in the source and are kept apart here.

Columns and labels:
[1] = test system: IFNa, PBMCs, p-STAT3; assay: IFNa induced p-STAT3 in PBMCs; type: cell-based; details: Homo sapiens, PBMC, IFNa stimulated PBMCs
[2] = molecular target: JAK3 JH1 (Homo sapiens (Human), UniProt P52333); assay: JAK3 JH1 binding (Kd, Table 2); details: JH1 domain
[3] = molecular target: JAK2 JH1 (Homo sapiens (Human), UniProt O60674); assay: JAK2 JH1 binding (Kd, Table 2); details: JH1 domain
[4] = test system: INFα Induced pSTAT5 in Human PBMC; assay: INFα induced pSTAT5 in human PBMC; type: cell-based; details: 0.25 h, human PBMCs, INFα 5000 units/ml 15 minutes, p-STAT5, read-out: IFNa, PBMCs, p-STAT5 (IC50)
Method: Fresh Human PBMCs were resuspended in RPMI 1640 medium with 10% FBS. Cells were seeded in a round bottom 96-well plate at the concentration of 200,000 cells/well. A 10-point dilution series of test compound (top dose 10 uM, 1:5 dilution) was added to the well using the liquid dispenser (Tecan D300e) and incubated for 1 hour at 37 C. Then human INFα recombinant protein (R&D Systems) was added to the well at the final concentration of 5000 units/ml and incubated for 15 minutes at 37 C. Cell lysates were prepared and analyzed by Phospho STAT5 (Tyr693) Kit (Meso Scale Discovery) following manufacturer's protocol.
For calculation of the inhibition rate, the relative pSTAT5 signal of each well=pSTAT5 signal of each well−the average pSTAT5 signal of baseline.
The inhibition %=(the average pSTAT5 signal of INFα treatment wells−the relative of pSTAT5 signal in each compound containing well)/the average pSTAT5 signal of INFα treatment wells*100%
The curve was plotted as the inhibition % (y-axis) vs. compounds concentration (x-axis) and is fitted with log(inhibitor) vs. normalized response—Variable slope by GraphPad Prism7.0.

[5] = molecular target: JAK1 JH2 (Homo sapiens (Human), UniProt P23458); assay: JAK1 JH2 binding (Kd, Table 2); details: JH2 domain
[6] = molecular target: JAK1 JH1 (Homo sapiens (Human), UniProt P23458); assay: JAK1 JH1 binding (Kd, Table 2); details: JH1 domain
[7] = molecular target: human TYK2 (JH2domain-pseudokinase) (Homo sapiens (Human), UniProt P29597); assay: TYK2 JH2 domain binding assay (KINOMEscan)
Method in brief: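 KINOMEscan competition: DNA-tagged NFkB-fusion kinase domains from HEK293 extracts (<0.1 nM) bound immobilized ligand with compound for 1 hour at room temperature, 0.9% DMSO. Bead-retained kinase was quantified by qPCR. Kd came from 11-point 3-fold series from 30,000 nM top, in duplicate, Hill fit with slope −1.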

[8] = molecular target: TYK2 JH1 (Homo sapiens (Human), UniProt P29597); assay: TYK2 JH1 binding (Kd, Table 2); details: JH1 domain
[9] = molecular target: JAK2 JH2 (Homo sapiens (Human), UniProt O60674); assay: JAK2 JH2 binding (Kd, Table 2); details: JH2 domain
[10] = cn_pd bond, 14-membered ring, 80.0 °C

Chain of JAK2 JH1 (O60674 849-1124): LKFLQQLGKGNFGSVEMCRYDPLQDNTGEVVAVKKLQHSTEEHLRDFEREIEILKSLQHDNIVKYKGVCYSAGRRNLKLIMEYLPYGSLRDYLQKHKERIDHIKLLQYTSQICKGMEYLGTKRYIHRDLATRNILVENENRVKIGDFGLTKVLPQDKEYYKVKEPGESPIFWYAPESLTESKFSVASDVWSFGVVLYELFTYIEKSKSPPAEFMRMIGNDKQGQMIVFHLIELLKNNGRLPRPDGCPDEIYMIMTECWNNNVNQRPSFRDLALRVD
Chain of JAK1 JH1 (P23458 875-1153): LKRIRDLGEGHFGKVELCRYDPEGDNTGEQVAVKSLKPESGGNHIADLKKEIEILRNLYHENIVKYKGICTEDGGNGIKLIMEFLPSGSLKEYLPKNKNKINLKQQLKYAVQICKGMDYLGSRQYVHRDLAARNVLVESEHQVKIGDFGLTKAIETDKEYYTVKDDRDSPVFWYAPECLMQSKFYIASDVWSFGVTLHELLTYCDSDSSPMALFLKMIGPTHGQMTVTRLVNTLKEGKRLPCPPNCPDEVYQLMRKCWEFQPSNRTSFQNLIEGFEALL
Chain of human TYK2 (JH2domain-pseudokinase) (P29597 556-888): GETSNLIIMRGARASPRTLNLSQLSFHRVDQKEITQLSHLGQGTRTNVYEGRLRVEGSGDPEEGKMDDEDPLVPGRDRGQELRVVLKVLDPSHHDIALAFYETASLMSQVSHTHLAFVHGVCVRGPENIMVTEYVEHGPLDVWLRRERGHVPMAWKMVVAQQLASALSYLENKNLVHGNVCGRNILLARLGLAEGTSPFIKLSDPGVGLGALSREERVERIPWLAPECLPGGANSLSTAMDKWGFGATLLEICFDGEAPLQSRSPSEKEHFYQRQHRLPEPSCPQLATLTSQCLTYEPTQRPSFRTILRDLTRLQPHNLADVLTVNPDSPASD
Chain of JAK2 JH2 (O60674 545-809): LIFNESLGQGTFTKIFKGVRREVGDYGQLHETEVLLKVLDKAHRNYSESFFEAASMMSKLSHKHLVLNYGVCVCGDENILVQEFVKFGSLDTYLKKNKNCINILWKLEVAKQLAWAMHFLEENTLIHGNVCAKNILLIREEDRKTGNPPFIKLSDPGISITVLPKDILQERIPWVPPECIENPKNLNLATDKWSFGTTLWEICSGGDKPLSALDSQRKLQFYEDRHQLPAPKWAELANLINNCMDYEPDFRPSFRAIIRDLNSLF
Chain of TYK2 JH1 (P29597 897-1176): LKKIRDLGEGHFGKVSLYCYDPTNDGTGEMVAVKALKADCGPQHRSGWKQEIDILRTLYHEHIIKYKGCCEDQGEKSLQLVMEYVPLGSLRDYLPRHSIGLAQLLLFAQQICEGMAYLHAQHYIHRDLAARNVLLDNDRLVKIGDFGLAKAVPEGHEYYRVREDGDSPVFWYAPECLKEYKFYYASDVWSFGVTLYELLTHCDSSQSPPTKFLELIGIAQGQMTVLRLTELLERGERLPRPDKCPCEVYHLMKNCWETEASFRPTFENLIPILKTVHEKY
Chain of JAK3 JH1 (P52333 822-1111): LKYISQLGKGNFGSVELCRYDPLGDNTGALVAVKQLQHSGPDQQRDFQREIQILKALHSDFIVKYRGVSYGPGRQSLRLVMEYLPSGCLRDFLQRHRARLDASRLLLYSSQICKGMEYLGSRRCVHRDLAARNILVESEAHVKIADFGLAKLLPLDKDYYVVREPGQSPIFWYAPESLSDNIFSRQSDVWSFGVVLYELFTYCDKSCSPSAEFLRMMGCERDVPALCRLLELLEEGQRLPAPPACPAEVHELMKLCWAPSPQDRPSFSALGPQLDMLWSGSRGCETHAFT
Chain of JAK1 JH2 (P23458 583-855): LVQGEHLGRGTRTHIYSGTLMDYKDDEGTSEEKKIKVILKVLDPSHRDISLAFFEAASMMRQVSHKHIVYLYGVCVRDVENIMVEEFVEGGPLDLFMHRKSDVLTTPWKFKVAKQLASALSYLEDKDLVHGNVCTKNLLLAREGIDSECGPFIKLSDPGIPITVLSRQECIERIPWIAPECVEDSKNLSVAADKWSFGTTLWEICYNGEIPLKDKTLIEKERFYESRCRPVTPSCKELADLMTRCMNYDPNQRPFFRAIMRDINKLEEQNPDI

Structure (SMILES)	Kd [2] [nM]	Kd [3] [nM]	Kd [5] [nM]	Kd [6] [nM]	Kd [7] [nM]	Kd [8] [nM]	Kd [9] [nM]	IC50 [1] [nM]	IC50 [4] [nM]	ring closure, yield after HPLC ([10]; from COc1nc(Br)cn2c(C(=O)N[C@H](C)COCc3cc(N)c4nnn(C)c4c3)cnc12, Pd2(dba)3/Xantphos/Cs2CO3, 1,4-dioxane, 61.0 mM) [%]	ring closure, yield after HPLC ([10]; from Cc1nc2cnc(Br)cn2c1C(=O)N[C@H](C)COCc1cc(N)c2nnn(C)c2c1, RuPhos Pd G3/Cs2CO3, dioxane) [%]
CNc1cc2nn3c(cnc13)C(=O)N[C@H](C)COCc1cc(c3c(c1)nnn3C)N2 [Compound 1]	≥ 30000	≥ 30000	10 to 1000	≥ 30000	< 10	1000 to 10000	1000 to 10000	< 50	< 50	–	–
CNc1cc2nn3c(cnc13)C(=O)N[C@H](CO)COCc1cc(c3nnn(C)c3c1)N2 [Compound 2]	–	–	10 to 1000	–	< 10	≥ 30000	–	≥ 100	< 50	–	–
CNc1cc2nn3c(cnc13)C(=O)N[C@H](C)COCc1cc(c3nnn(C)c3c1)N2 [Compound 5]	≥ 30000	≥ 30000	1000 to 10000	≥ 30000	< 10	≥ 30000	10000 to 30000	< 50	< 50	–	–

Second part, led by results:

Kd [2] [nM]	Kd [3] [nM]	Kd [5] [nM]	Kd [6] [nM]	Kd [7] [nM]	Kd [8] [nM]	Kd [9] [nM]	Structure (SMILES)	IC50 [1] [nM]	IC50 [4] [nM]	ring closure, yield after HPLC ([10]; from COc1nc(Br)cn2c(C(=O)N[C@H](C)COCc3cc(N)c4nnn(C)c4c3)cnc12, Pd2(dba)3/Xantphos/Cs2CO3, 1,4-dioxane, 61.0 mM) [%]	ring closure, yield after HPLC ([10]; from Cc1nc2cnc(Br)cn2c1C(=O)N[C@H](C)COCc1cc(N)c2nnn(C)c2c1, RuPhos Pd G3/Cs2CO3, dioxane) [%]
≥ 30000	≥ 30000	10 to 1000	≥ 30000	< 10	1000 to 10000	1000 to 10000	CNc1cc2nn3c(cnc13)C(=O)N[C@H](C)COCc1cc(c3nn(C)nc3c1)N2 [Compound 6]	< 50	< 50	–	–
–	–	≥ 30000	–	1000 to 10000	≥ 30000	–	COc1nc2cn3c(cnc13)C(=O)N[C@H](C)COCc1cc(c3nnn(C)c3c1)N2 [Compound 79]	–	–	14	–
–	–	≥ 30000	–	1000 to 10000	≥ 30000	–	Cc1nc2cnc3cn2c1C(=O)N[C@H](C)COCc1cc(c2nnn(C)c2c1)N3 [Compound 81]	–	–	–	20
